Literature values in patent publication EP3721896B1, “EPIDERMAL GROWTH FACTOR (EGF) AND VARIANTS THEREOF FOR TREATING OR PREVENTING INFLAMMATORY DEMYELINATING DISORDERS” (Scalabrino, Giuseppe, priority 2019, dated 2023).

Test system: experimental autoimmune encephalomyelitis (EAE)
Conditions: administered alone; Lewis rat; from EP1870106A2

## GHRP-6
  Effect on course of EAE as compared to placebo: no effect was observed
